Results: patent US9833497B2, “Human originated EGF domain proteins and use of the same” (CHENGDU SOURCEBIO LIMITED-LIABILITY COMPANY, priority 2013, dated 2017)

What was measured:
Format in all cases: cell-based
Enterobacter cloacae = test: MIC against Gram-negative bacteria: Enterobacter cloacae; settings: 5×10^5 CFU/mL; for MIC against E. cloacae: Enterobacter cloacae
In short: (§1)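 Read-out is absence of bacterial growth, with MIC set at the lowest recombinant protein concentration achieving it. Bacteria, pre-grown in LB to McFarland 0.5 and resuspended, were exposed at 5×10^5 CFU/mL to two-fold diluted human EGF domain proteins in triplicate at 37° C, 175 rpm.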

Pseudomonas aeruginosa = test: MIC against Gram-negative bacteria: Pseudomonas aeruginosa; settings: 5×10^5 CFU/mL; for MIC against P. aeruginosa: Pseudomonas aeruginosa
In short: as §1

Aeromonas hydrophila = test: MIC against Gram-negative bacteria: Aeromonas hydrophila; settings: 5×10^5 CFU/mL; for MIC against A. hydrophila: Aeromonas hydrophila
In short: as §1

Klebsiella pneumonia = test: MIC against Gram-negative bacteria: Klebsiella pneumonia; settings: 5×10^5 CFU/mL; for MIC against K. pneumonia: Klebsiella pneumonia
In short: as §1

Proteus vulgaris = test: MIC against Gram-negative bacteria: Proteus vulgaris; settings: 5×10^5 CFU/mL; for MIC against P. vulgaris: Proteus vulgaris
In short: as §1

E. coli DH5α = test: Antibacterial activity: MIC and growth curve against E. coli DH5α in 96-well plate; settings: minimal inhibitory concentration against E. coli DH5α; 96-well plate, 5×10^5 CFU/mL, 37° C., judged after 8 h
In short: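 Log-phase bacteria (OD600 ~0.5) resuspended in LB at 5×10^5 CFU/mL, exposed to recombinant protein at 50, 25, 12.5 μg/mL final in triplicate, 37 °C shaking at 175 rpm. OD600 read every 30 min; MIC is lowest concentration showing no growth.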

Citrobacter diversus = test: MIC against Gram-negative bacteria: Citrobacter diversus; settings: 5×10^5 CFU/mL; for MIC against C. diversus: Citrobacter diversus
In short: as §1

Proteus mirabilis = test: MIC against Gram-negative bacteria: Proteus mirabilis; settings: 5×10^5 CFU/mL; for MIC against P. mirabilis: Proteus mirabilis
In short: as §1

Moraxella catarrhalis = test: MIC against Gram-negative bacteria: Moraxella catarrhalis; settings: 5×10^5 CFU/mL; for MIC against M. catarrhalis: Moraxella catarrhalis
In short: as §1

Serratia marcescens = test: MIC against Gram-negative bacteria: Serratia marcescens; settings: 5×10^5 CFU/mL; for MIC against S. marcescens: Serratia marcescens
In short: as §1

E. coli BL21 = test: MIC against Gram-negative bacteria: E. coli BL21; settings: 5×10^5 CFU/mL
In short: as §1

[1] = E. cloacae, 10 h cultivation at 37° C.
[2] = P. aeruginosa, 10 h cultivation at 37° C.
[3] = A. hydrophila, 10 h cultivation at 37° C.
[4] = K. pneumonia, 10 h cultivation at 37° C.
[5] = P. vulgaris, 10 h cultivation at 37° C.
[6] = C. diversus, 10 h cultivation at 37° C.
[7] = P. mirabilis, 10 h cultivation at 37° C.
[8] = M. catarrhalis, 10 h cultivation at 37° C.
[9] = S. marcescens, 10 h cultivation at 37° C.
[10] = E. coli BL21, 10 h cultivation at 37° C.
[11] = 10 h cultivation at 37° C., two-fold serial dilution

Substance: PRT822 (VRAGCRHSGGCLNGGLCDPHTGRCLCPAGWTGDKCQ; listed as Homo sapiens)
- MIC (μg/mL) E. cloacae (Enterobacter cloacae; [1]): 50 µg/mL
- MIC (μg/mL) P. aeruginosa (Pseudomonas aeruginosa; [2]): 50 µg/mL
- MIC (μg/mL) A. hydrophila (Aeromonas hydrophila; [3]): 12.5 µg/mL
- MIC (μg/mL) K. pneumonia (Klebsiella pneumonia; [4]): 12.5 µg/mL
- MIC (μg/mL) P. vulgaris (Proteus vulgaris; [5]): 12.5 µg/mL
- MIC (E. coli DH5α): 12.5 µg/mL
- MIC (μg/mL) C. diversus (Citrobacter diversus; [6]): 12.5 µg/mL
- MIC (μg/mL) P. mirabilis (Proteus mirabilis; [7]): 25 µg/mL
- MIC (μg/mL) M. catarrhalis (Moraxella catarrhalis; [8]): 12.5 µg/mL
- MIC (μg/mL) S. marcescens (Serratia marcescens; [9]): 12.5 µg/mL
- MIC (μg/mL) E. coli BL21 (E. coli BL21; [10]): 25 µg/mL

Substance: PRT1466 (CSCHTTGAVNHICNSLTGQCVCQDASIAGQRCDQCKDHYFGFDPQTGRCQP; listed as Homo sapiens)
- MIC against E. cloacae (Enterobacter cloacae; 10 h cultivation at 37° C.): 12.5 µg/mL
- MIC against P. aeruginosa (Pseudomonas aeruginosa; 10 h cultivation at 37° C.): 12.5 µg/mL
- MIC against A. hydrophila (Aeromonas hydrophila; 10 h cultivation at 37° C.): 50 µg/mL
- MIC against K. pneumonia (Klebsiella pneumonia; 10 h cultivation at 37° C.): 50 µg/mL
- MIC against P. vulgaris (Proteus vulgaris; 10 h cultivation at 37° C.): 12.5 µg/mL
- MIC (E. coli DH5α): 50 µg/mL
- MIC against C. diversus (Citrobacter diversus; 10 h cultivation at 37° C.): 12.5 µg/mL
- MIC against P. mirabilis (Proteus mirabilis; 10 h cultivation at 37° C.): 25 µg/mL
- MIC against M. catarrhalis (Moraxella catarrhalis; 10 h cultivation at 37° C.): 50 µg/mL
- MIC against S. marcescens (Serratia marcescens; 10 h cultivation at 37° C.): 25 µg/mL
- MIC against E. coli BL21 (E. coli BL21; [10]): 25 µg/mL

Substance: PRT1250 (FGARCDRYCQCFRGRCHPVDGTCACEPGYRGKYCR; listed as Homo sapiens)
- MIC against E. cloacae (Enterobacter cloacae; 96-well plate, 37° C., 10 h): 50 µg/mL
- MIC against P. aeruginosa (Pseudomonas aeruginosa; 96-well plate, 37° C., 10 h): 12.5 µg/mL
- MIC against A. hydrophila (Aeromonas hydrophila; 96-well plate, 37° C., 10 h): 12.5 µg/mL
- MIC against K. pneumonia (Klebsiella pneumonia; 96-well plate, 37° C., 10 h): 25 µg/mL
- MIC against P. vulgaris (Proteus vulgaris; 96-well plate, 37° C., 10 h): 50 µg/mL
- MIC (E. coli DH5α): 12.5 µg/mL
- MIC against C. diversus (Citrobacter diversus; 96-well plate, 37° C., 10 h): 50 µg/mL
- MIC against P. mirabilis (Proteus mirabilis; 96-well plate, 37° C., 10 h): 25 µg/mL
- MIC against M. catarrhalis (Moraxella catarrhalis; 96-well plate, 37° C., 10 h): 12.5 µg/mL
- MIC against S. marcescens (Serratia marcescens; 96-well plate, 37° C., 10 h): 25 µg/mL
- MIC against E. coli BL21 (E. coli BL21; E. coli BL21, 96-well plate, 37° C., 10 h): 50 µg/mL

Substance: PRT416 (DVDECAPPAEPCGKGHRCVNSPGSFRCECKTGYYFDGISRMCV; listed as Homo sapiens)
- MIC (Enterobacter cloacae; [1]): 50 µg/mL
- MIC (Pseudomonas aeruginosa; [2]): 12.5 µg/mL
- MIC (Aeromonas hydrophila; [3]): 25 µg/mL
- MIC (Klebsiella pneumonia; [4]): 25 µg/mL
- MIC (Proteus vulgaris; [5]): 25 µg/mL
- MIC (E. coli DH5α): 50 µg/mL
- MIC (Citrobacter diversus; [6]): 12.5 µg/mL
- MIC (Proteus mirabilis; [7]): 50 µg/mL
- MIC (Moraxella catarrhalis; [8]): 25 µg/mL
- MIC (Serratia marcescens; [9]): 12.5 µg/mL
- MIC (E. coli BL21; [10]): 25 µg/mL

Substance: PRT157 (VADPCASNPCHHGNCSSSSSSSSDGYLCICNEGYEGPNCE; listed as Homo sapiens)
- MIC (μg/mL) E. cloacae (Enterobacter cloacae; [1]): 25 µg/mL
- MIC (μg/mL) P. aeruginosa (Pseudomonas aeruginosa; [2]): 25 µg/mL
- MIC (μg/mL) A. hydrophila (Aeromonas hydrophila; [3]): 12.5 µg/mL
- MIC (μg/mL) K. pneumonia (Klebsiella pneumonia; [4]): 12.5 µg/mL
- MIC (μg/mL) P. vulgaris (Proteus vulgaris; [5]): 12.5 µg/mL
- MIC (E. coli DH5α): 12.5 µg/mL
- MIC (μg/mL) C. diversus (Citrobacter diversus; [6]): 12.5 µg/mL
- MIC (μg/mL) P. mirabilis (Proteus mirabilis; [7]): 12.5 µg/mL
- MIC (μg/mL) M. catarrhalis (Moraxella catarrhalis; [8]): 12.5 µg/mL
- MIC (μg/mL) S. marcescens (Serratia marcescens; [9]): 12.5 µg/mL
- MIC (μg/mL) E. coli BL21 (E. coli BL21; [10]): 50 µg/mL

Substance: PRT1187 (NTNDCNPLPCYNGGICVDGVNWFRCECAPGFAGPDCR; listed as Homo sapiens)
- MIC E. cloacae (Enterobacter cloacae; [11]): 25 µg/mL
- MIC P. aeruginosa (Pseudomonas aeruginosa; [11]): 12.5 µg/mL
- MIC A. hydrophila (Aeromonas hydrophila; [11]): 12.5 µg/mL
- MIC K. pneumonia (Klebsiella pneumonia; [11]): 25 µg/mL
- MIC P. vulgaris (Proteus vulgaris; [11]): 12.5 µg/mL
- MIC (E. coli DH5α): 50 µg/mL
- MIC C. diversus (Citrobacter diversus; [11]): 12.5 µg/mL
- MIC P. mirabilis (Proteus mirabilis; [11]): 25 µg/mL
- MIC M. catarrhalis (Moraxella catarrhalis; [11]): 12.5 µg/mL
- MIC S. marcescens (Serratia marcescens; [11]): 12.5 µg/mL
- MIC E. coli BL21 (E. coli BL21; [11]): 25 µg/mL
